Key:
786-0 = assay: Growth inhibition of human 786-0 cells assessed as cell growth at 0.1 uM incubated for 48 hrs by sulforhodamine B assay relative to control; format: functional; settings: 786-0, 48 h, read-out: Activity
OVCAR-4 = assay: Growth inhibition of human OVCAR4 cells assessed as cell growth at 0.01 uM incubated for 48 hrs by sulforhodamine B assay relative to control; format: functional; settings: OVCAR-4, 48 h, read-out: Activity
HOP-62 = assay: Growth inhibition of human HOP62 cells incubated for 48 hrs by sulforhodamine B assay; format: functional, cell-based; settings: HOP-62, 48 h
MCF7 [1] = assay: Growth inhibition of human MCF7 cells incubated for 48 hrs by sulforhodamine B assay; format: functional, cell-based; settings: MCF7, 48 h
A549 [2] = assay: Growth inhibition of human A549/ATCC cells assessed as cell growth at 1 uM incubated for 48 hrs by sulforhodamine B assay relative to control; format: functional; settings: A549, 48 h, read-out: Activity
SNB-75 = assay: Growth inhibition of human SNB75 cells assessed as cell growth at 0.1 uM incubated for 48 hrs by sulforhodamine B assay relative to control; format: functional; settings: SNB-75, 48 h, read-out: Activity
UO-31 = assay: Growth inhibition of human UO31 cells assessed as cell growth at 0.01 uM incubated for 48 hrs by sulforhodamine B assay relative to control; format: functional; settings: UO-31, 48 h, read-out: Activity
Hs-578T = assay: Growth inhibition of human Hs578T cells assessed as cell growth at 0.01 uM incubated for 48 hrs by sulforhodamine B assay relative to control; format: functional; settings: read-out: Activity
NCI-H460 [3] = assay: Growth inhibition of human NCI-H460 cells incubated for 48 hrs by sulforhodamine B assay; format: functional, cell-based; settings: NCI-H460, 48 h
MCF7 [4] = assay: Growth inhibition of human MCF7 cells assessed as cell growth at 1 uM incubated for 48 hrs by sulforhodamine B assay relative to control; format: functional; settings: MCF7, 48 h, read-out: Activity
CCRF-CEM = assay: Growth inhibition of human CCRF-CEM cells incubated for 48 hrs by sulforhodamine B assay; format: functional, cell-based
ACHN [5] = assay: Growth inhibition of human ACHN cells assessed as cell growth at 1 uM incubated for 48 hrs by sulforhodamine B assay relative to control; format: functional; settings: read-out: Activity
A549 [6] = assay: Growth inhibition of human A549/ATCC cells assessed as cell growth at 0.01 uM incubated for 48 hrs by sulforhodamine B assay relative to control; format: functional; settings: A549, 48 h, read-out: Activity
SK-MEL-5 = assay: Growth inhibition of human SK-MEL-5 cells incubated for 48 hrs by sulforhodamine B assay; format: functional, cell-based; settings: SK-MEL-5, 48 h
HL-60(TB) = assay: Growth inhibition of human HL-60(TB) cells assessed as cell growth at 1 uM incubated for 48 hrs by sulforhodamine B assay relative to control; format: functional; settings: HL-60, 48 h, read-out: Activity
HCC 2998 = assay: Growth inhibition of human HCC2998 cells assessed as cell growth at 1 uM incubated for 48 hrs by sulforhodamine B assay relative to control; format: functional; settings: HCC 2998, 48 h, read-out: Activity
NCI-H23 = assay: Growth inhibition of human NCI-H23 cells assessed as cell growth at 100 uM incubated for 48 hrs by sulforhodamine B assay relative to control; format: functional; settings: NCI-H23, 48 h, read-out: Activity
NCI-H460 [7] = assay: Growth inhibition of human NCI-H460 cells assessed as cell growth at 1 uM incubated for 48 hrs by sulforhodamine B assay relative to control; format: functional; settings: NCI-H460, 48 h, read-out: Activity
BT-549 = assay: Growth inhibition of human BT549 cells assessed as cell growth at 1 uM incubated for 48 hrs by sulforhodamine B assay relative to control; format: functional; settings: BT-549, 48 h, read-out: Activity
M14 = assay: Growth inhibition of human M14 cells assessed as cell growth at 0.01 uM incubated for 48 hrs by sulforhodamine B assay relative to control; format: functional; settings: M14, 48 h, read-out: Activity
UACC-62 = assay: Growth inhibition of human UACC62 cells assessed as cell growth at 0.1 uM incubated for 48 hrs by sulforhodamine B assay relative to control; format: functional; settings: UACC-62, 48 h, read-out: Activity
MDA-MB-468 = assay: Growth inhibition of human MDA-MB-468 cells incubated for 48 hrs by sulforhodamine B assay; format: functional, cell-based; settings: MDA-MB-468, 48 h
PC-3 [8] = assay: Growth inhibition of human PC3 cells assessed as cell growth at 0.1 uM incubated for 48 hrs by sulforhodamine B assay relative to control; format: functional; settings: PC-3, 48 h, read-out: Activity
ACHN [9] = assay: Growth inhibition of human ACHN cells assessed as cell growth at 0.01 uM incubated for 48 hrs by sulforhodamine B assay relative to control; format: functional; settings: read-out: Activity
PC-3 [10] = assay: Growth inhibition of human PC3 cells assessed as cell growth at 0.01 uM incubated for 48 hrs by sulforhodamine B assay relative to control; format: functional; settings: PC-3, 48 h, read-out: Activity
HCT-15 = assay: Growth inhibition of human HCT15 cells incubated for 48 hrs by sulforhodamine B assay; format: functional, cell-based; settings: HCT-15, 48 h
DU-145 = assay: Growth inhibition of human DU145 cells assessed as cell growth at 0.01 uM incubated for 48 hrs by sulforhodamine B assay relative to control; format: functional; settings: DU-145, 48 h, read-out: Activity
CAKI-1 = assay: Growth inhibition of human Caki1 cells assessed as cell growth at 0.01 uM incubated for 48 hrs by sulforhodamine B assay relative to control; format: functional; settings: CAKI-1, 48 h, read-out: Activity
NCI-H226 = assay: Growth inhibition of human NCI-H226 cells assessed as cell growth at 0.01 uM incubated for 48 hrs by sulforhodamine B assay relative to control; format: functional; settings: NCI-H226, 48 h, read-out: Activity
[11] = read-out: LC50 (the source's name)
[12] = read-out: pLC50 (the source's name) (converted)

Compound: COc1cc(Cl)cc(-c2nn(-c3cccc(NC(=O)c4cccc(C(F)(F)F)c4)c3)cc2-c2ccncc2)c1
- growth at 0.1 µM (786-0): 97%
- growth at 0.01 µM (OVCAR-4): 106%
- GI50 (HOP-62; read-out: GI50): > 100 µM
- CC50 (HOP-62; [11]): > 100 µM
- TGI (HOP-62; read-out: TGI): > 100 µM
- GI50 (HOP-62; read-out: pGI50 (converted)): > 100 µM
- CC50 (HOP-62; [12]): > 100 µM
- TGI (HOP-62; read-out: pTGI (converted)): > 100 µM
- GI50 (MCF7 [1]; read-out: GI50): 4.17 µM
- LC50 (MCF7 [1]; read-out: LC50): > 100 µM
- TGI (MCF7 [1]; read-out: TGI): > 100 µM
- GI50 (MCF7 [1]; read-out: pGI50 (converted)): 4.17 µM
- LC50 (MCF7 [1]; read-out: pLC50 (converted)): > 100 µM
- TGI (MCF7 [1]; read-out: pTGI (converted)): > 100 µM
- growth at 1 µM (A549 [2]): 75%
- growth at 0.1 µM (SNB-75): 54%
- growth at 0.01 µM (UO-31): 58%
- growth at 0.01 µM (Hs-578T): 97%
- GI50 (NCI-H460 [3]; read-out: GI50): 5.17 µM
- CC50 (NCI-H460 [3]; [11]): > 100 µM
- TGI (NCI-H460 [3]; read-out: TGI): > 100 µM
- GI50 (NCI-H460 [3]; read-out: pGI50 (converted)): 5.13 µM
- CC50 (NCI-H460 [3]; [12]): > 100 µM
- TGI (NCI-H460 [3]; read-out: pTGI (converted)): > 100 µM
- growth at 1 µM (MCF7 [4]): 57%
- GI50 (CCRF-CEM; read-out: GI50): 4.38 µM
- CC50 (CCRF-CEM; [11]): > 100 µM
- TGI (CCRF-CEM; read-out: TGI): > 100 µM
- GI50 (CCRF-CEM; read-out: pGI50 (converted)): 4.37 µM
- CC50 (CCRF-CEM; [12]): > 100 µM
- TGI (CCRF-CEM; read-out: pTGI (converted)): > 100 µM
- growth at 1 µM (ACHN [5]): 54%
- growth at 0.01 µM (A549 [6]): 98%
- GI50 (SK-MEL-5; read-out: GI50): 5.43 µM
- CC50 (SK-MEL-5; [11]): > 100 µM
- TGI (SK-MEL-5; read-out: TGI): > 100 µM
- GI50 (SK-MEL-5; read-out: pGI50 (converted)): 5.37 µM
- CC50 (SK-MEL-5; [12]): > 100 µM
- TGI (SK-MEL-5; read-out: pTGI (converted)): > 100 µM
- growth at 1 µM (HL-60(TB)): 105%
- growth at 1 µM (HCC 2998): 103%
- growth at 100 µM (NCI-H23): 27%
- growth at 1 µM (NCI-H460 [7]): 93%
- growth at 1 µM (BT-549): 94%
- growth at 0.01 µM (M14): 101%
- growth at 0.1 µM (UACC-62): 94%
- IC50 (MDA-MB-468): 4.26 µM
- GI50 (MDA-MB-468; read-out: GI50): 4.26 µM
- CC50 (MDA-MB-468; [11]): > 100 µM
- TGI (MDA-MB-468; read-out: TGI): > 100 µM
- GI50 (MDA-MB-468; read-out: pGI50 (converted)): 4.27 µM
- CC50 (MDA-MB-468; [12]): > 100 µM
- TGI (MDA-MB-468; read-out: pTGI (converted)): > 100 µM
- growth at 0.1 µM (PC-3 [8]): 52%
- growth at 0.01 µM (ACHN [9]): 98%
- growth at 0.01 µM (PC-3 [10]): 94%
- GI50 (HCT-15; read-out: GI50): 3.36 µM
- CC50 (HCT-15; [11]): > 100 µM
- TGI (HCT-15; read-out: TGI): > 100 µM
- GI50 (HCT-15; read-out: pGI50 (converted)): 3.31 µM
- CC50 (HCT-15; [12]): > 100 µM
- TGI (HCT-15; read-out: pTGI (converted)): > 100 µM
- growth at 0.01 µM (DU-145): 109%
- growth at 0.01 µM (CAKI-1): 95%
- growth at 0.01 µM (NCI-H226): 95%
